Results taken from US20250129033A1, “METAP2 INHIBITORS AND USES THEREOF” (Yissum Research Development Company of the Hebrew …, priority 2022, published 2025).
Entries after “also recorded” stand apart in the source; their conditions may differ.

What was measured:
[1] = target: T1, MetAp2 in MDA-MB-231 cancer cells (Homo sapiens, UniProt P50579); assay: MetAp2 enzymatic activity in MDA-MB-231 cell homogenate; format: biochemical; conditions: 2.5 μM
T1 construct: host or cells: MDA-MB-231 cell homogenate (RIPA supernatant, 5 µg protein)
Procedure: A375 and MDA-MB-231 were sub cultivated using trypsin, then centrifuge and counted. To obtain a homogenate containing an equivalent cell number, cells were resuspended in an appropriate volume of cold RIPA containing a protease inhibitor cocktail. Insoluble cellular components were removed by centrifugation at 15,000 RPM for 10 min at 4° C. The protein content of the supernatant was determined according to the Bradford protein assay using BSA as the standard.
The enzymatic assay was performed using 5 μg protein per sample as described previously. […] An increase of fluorescence, due to substrate degradation during the enzymatic assay, was measured every 20 seconds for 1 h and 30 min at 37° C. using a plate reader (Wallac 1420 VICTOR plate reader, Perkin-Elmer Life Sciences, USA). […]
A375 and MDA-MB-231 were sub-cultivated using trypsin, then centrifuged and counted. […] The protein content of the supernatant was determined according to the Bradford protein assay using BSA as the standard. […] An increase of fluorescence, due to substrate degradation during the enzymatic assay, was measured every 20 seconds for 1 h and 30 min at 37° C. using a plate reader (Wallac 1420 VICTOR plate reader, Perkin-Elmer Life Sciences, USA). […]

[2] = test system: A375 3D multicellular spheroids; assay: A375 3D spheroid viability (WST1); format: cell-based, human; conditions: 50 μM free inhibitor, 96 h
Procedure: 3D Petri Dish 35-well array (Microtissues Inc., RI, USA) was used to create 2% agarose hydrogel micro-wells. Each well contained 5,000 cells of A375 cells. 30 minutes after seeding, 1 ml of medium was added and templates were incubated at 37° C. for 24 hours. […] The absorbance was measured at 450 nm using a plate reader (Wallac 1420 VICTOR plate reader, Perkin-Elmer Life Sciences, USA).

[3] = test system: MDA-MB-231 xenograft; assay: MDA-MB-231 xenograft in mice; format: in vivo, Foxn1 nu mice
Procedure: Animal studies were approved by the Institutional Animal Care and Use Committee of the Faculty of Medicine of the Hebrew University and followed the guidelines for use of laboratory animals. 6-8-week-old male Foxn1 nu mice were S.C. injected with 5×10^6 A375 and MDA-MB-231 cells/mouse. Mice were I.P treated with 30 mg/kg and 15 mg/kg AD-3281 every other day and with 15 mg/kg, 7.5 mg/kg AD-3281 every other day in mice injected with A375 and MDA-MB-231 respectively. Tumor growth was measured with a digital caliper. At the end of the experiments after 18 or 15 days, mice were sacrificed, and tumors were surgically removed, weighed, volume was measured and histology stating was performed. AD-3281 was dissolved in 10:10:80 […]:ethanol:saline.
Animal studies were approved by the Institutional Animal Care and Use Committee of the Faculty of Medicine of the Hebrew University and followed the guidelines for use of laboratory animals. 6-8-week-old male Foxn1 nu mice were S.C. injected with 5×10^6 A375 or MDA-MB-231 cells/mouse. Mice were I.P treated with 30 mg/kg and 15 mg/kg AD-3281 q.o.d and with 15 mg/kg, 7.5 mg/kg AD-3281 (dissolved in 10:10:80 Cremophor EL: Ethanol: Saline) q.o.d in mice injected with A375 and MDA-MB-231 respectively. Tumor growth was measured with a digital caliper. At the end of the experiments after 18 or 15 days, mice were sacrificed, and tumors were surgically removed, weighed, volume was measured and histology stating was performed. Tumor tissues were resected at the end point and analyzed by immunohistology using standard protocol for paraffin fixed sections using anti-Ki-67 (Abcam, catalog number ab15580), anti-CD31 (Abcam, catalog number ab28364), anti-MetAp-2 (Ab134124, Abcam, Cambridge, UK) (Figure S.

[4] = test system: HUVECs; assay: Endothelial tube formation assay; format: cell-based, human; conditions: 12 h
Procedure: To evaluate the angiogenic effect of AD-3281, an endothelial tube formation assay was performed. HUVECs were kept in serum-free Dulbecco's modified Eagle's medium media, collected, seeded in 0.1% gelatin coated 96-well plate and monitored for 12 h using a microscope. Images were taken from 6 separated wells and analyzed using Incucyte® Live-Cell Analysis Systems.

T1 sequence (P50579 whole entry): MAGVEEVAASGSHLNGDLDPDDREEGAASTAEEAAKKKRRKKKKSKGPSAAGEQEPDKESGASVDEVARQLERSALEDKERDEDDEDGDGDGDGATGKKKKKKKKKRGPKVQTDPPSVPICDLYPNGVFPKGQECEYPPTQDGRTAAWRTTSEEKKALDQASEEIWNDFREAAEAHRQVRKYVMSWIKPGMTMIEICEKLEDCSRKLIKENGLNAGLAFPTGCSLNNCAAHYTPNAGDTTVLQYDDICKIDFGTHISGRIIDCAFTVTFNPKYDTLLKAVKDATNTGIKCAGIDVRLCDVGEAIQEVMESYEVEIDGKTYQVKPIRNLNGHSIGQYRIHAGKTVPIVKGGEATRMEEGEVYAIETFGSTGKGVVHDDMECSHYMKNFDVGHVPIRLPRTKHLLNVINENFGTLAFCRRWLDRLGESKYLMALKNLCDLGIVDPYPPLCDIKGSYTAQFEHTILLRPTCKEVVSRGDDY

inhibition of MetAp2 activity in MDA-MB-231 after 10 minutes ([1]; 10 minutes of exposure): Significant inhibition
reduction of MetAp2 enzymatic activity in MDA-MB-231 ([1]; over the course of 1 h): 80%
weight loss (>10%) ([3]; all treated mice): not weight loss was detected
Compound: COC1C(OC(=O)CC23CC4CC(CC(C4)C2)C3)CCC2(CO2)C1C1(C)OC1CC=C(C)C (centres unmarked) [AD-3281, Fumagillol-1-adamantylacetate]
effect of free inhibitor on spheroids viability [2]: did not show a significant reduction; also recorded: slight reduction of spheroids viability
mean weight of extracted tumors ([3]; 7.5 mg/kg q.o.d (untreated 1 g)): 0.05 g
tumor volume inhibition ([3]; 7.5 mg/kg q.o.d, after 15 days): 97%
mean weight of extracted tumors ([3]; 15 mg/kg q.o.d (untreated 1 g)): 0.001 g
tumors that seemed completely eradicated ([3]; 15 mg/kg q.o.d, after 15 days, n=4): 3 tumors
systemic adverse effects ([3]; all treated mice): no signs of systemic adverse effects
HUVEC tube formation ([4]; 50 μM): narrower tubes compared with untreated control but without preventing network formation
HUVEC tube formation ([4]; 100 μM): impaired tubes; also recorded: prevent tube formation
